Reference: ChEMBL document CHEMBL4152289, “Novel 8-nitroquinolin-2(1H)-ones as NTR-bioactivated antikinetoplastid molecules: Synthesis, electrochemical and SAR study” (Eur J Med Chem, 2018)

What was measured:
HepG2 = experiment: Cytotoxicity against human HepG2 cells assessed as decrease in cell viability after 72 hrs by MTT assay; conditions: hepg2, 72 h
Leishmania infantum = experiment: microbe, parasite or virus in culture; type: functional, organism-based; conditions: MHOM/MA/67/ITMAP-263, 48 h
[1] = Electrochemical behavior of the compound assessed as redox potential corrected toward normal hydrogen electrode at 10^-3 mol/L by cyclic voltammetry; conditions: 1000 µM
[2] = system: Trypanosoma brucei brucei; experiment: Antitrypanosomal activity against trypomastigote stage of Trypanosoma brucei brucei AnTat 1.9 assessed as decrease in parasite viability after 69 hrs by Alamar Blue assay; type: functional, organism-based; conditions: AnTat 1.9, 69 h

| IC50 (Leishmania infantum) [µM] | Activity [1] [V] | IC50 [2] [µM] | Structure (SMILES) | CC50 (HepG2) [µM] |
| --- | --- | --- | --- | --- |
| > 100 | -1.86 | > 50 | Oc1ccc2ccccc2n1 | > 100 |
| > 100 | -0.67 | > 50 | O=[N+]([O-])c1cccc2nc(O)ccc12 | > 100 |
| > 100 | -0.82 | 2.3 | O=[N+]([O-])c1ccc2nc(O)ccc2c1 | > 100 |
| > 100 | – | > 50 | Cn1c(=O)ccc2ccccc21 | > 100 |
| 20.3 | -0.51 | 5.5 | O=c1cc(Br)c2cccc([N+](=O)[O-])c2[nH]1 | 60 |
| > 100 | -0.68 | > 50 | CC(=O)Nc1ccccc1[N+](=O)[O-] | > 100 |
| > 100 | -0.71 | > 50 | Cc1ccc2ccc(=O)[nH]c2c1[N+](=O)[O-] | > 100 |
| > 6.2 | -0.86 | 0.4 | COc1nc2c([N+](=O)[O-])cccc2cc1Br | > 6.2 |
| > 100 | – | 2.5 | CC(C)(C)OC(=O)NCCOCCOCCNCc1cc(=O)[nH]c2c([N+](=O)[O-])cccc12 | > 100 |
| > 100 | -1.1 | > 50 | Nc1ccc2cccnc2c1[N+](=O)[O-] | > 100 |
| > 100 | -0.75 | > 50 | COc1ccc2ccc(=O)[nH]c2c1[N+](=O)[O-] | > 100 |
| 10.2 | -0.53 | 20.9 | Cc1cc(=O)[nH]c2c([N+](=O)[O-])cccc12 | 110 |
| 11 | -0.46 | 7.3 | O=c1cnc2cccc([N+](=O)[O-])c2[nH]1 | 125 |
| > 100 | -0.65 | > 50 | COc1ccc([N+](=O)[O-])c2[nH]c(=O)ccc12 | > 100 |

| Structure (SMILES) | IC50 (Leishmania infantum) [µM] | Activity [1] [V] | IC50 [2] [µM] | CC50 (HepG2) [µM] |
| --- | --- | --- | --- | --- |
| O=[N+]([O-])c1cccc2cccnc12 | > 100 | -0.84 | 17.9 | > 100 |
